Data published in patent US7390892B2, “Nucleic acids encoding novel cyclic GMP dependent protein kinases from Elmeria maxima” (Merial Limited, priority 2001, dated 2008).
Values after ≈ are worked out from the molar mass of the structure shown. Values joined by “and” are separate entries in the source; they are usually repeats but may differ in a detail not shown here. Equal values may be shown once.

What was measured:
Native P. falciparum PKG = molecular target: T1, Native P. falciparum PKG (Plasmodium falciparum, UniProt Q8I719); experiment: PKG catalytic assay, native P. falciparum PKG; format: biochemical
T1 construct: endogenous in cells; host or cells: P. falciparum NF54, schizont/trophozoite-enriched cultures in human erythrocytes; MonoQ then 8-AET-cGMP-agarose
Method: The NF54 strain of P. falciparum was grown in 5% human O+ red blood cells in RPMI 1640 media supplemented with 10% heat-inactivated human serum and 3% hypoxanthine using modifications of standard conditions (Trager and Jensen, 1976, Science 193, 673-675). Media was changed daily and parasites were diluted into fresh erythrocytes to a parasitemia of 0.2-0.5% every 3 to 4 days; final parasitemia ranged from 4 to 10%. Synchronized cultures (Lambros and Vanderberg, 1979, J. Parasitology 65, 418-420) enriched for schizont and trophozoite stages were prepared in a continuous Percoll gradient (Rivadeneira et al, 1983 J. Protozoology 30, 367-370). […]
A linear NaCl gradient was applied (0-500 mM in 3ml @ 100 ul/min) and 100 ul fractions were collected and assayed for PKG enzyme activity. […] The purification of P. falciparum PKG was monitored by Western blot analysis using a commercially available antipeptide antisera directed at a conserved PKG peptide (Calbiochem Cat. No. 539729). • (v) PKG Catalytic Assay
(§1) Kinase activity was detected using a peptide substrate and [γ-^33P]-ATP. […] In both cases filters were washed with 75 mM phosphoric acid, dried and ^33P-labelled phosphopeptide was detected by liquid scintillation counting.

P. berghei = experiment: Parasitemia in mice infected with P. berghei; format: in vivo; settings: Balb C mice, individual mice 1-5
Method: Balb C mice were infected intra-peritoneally with 1×10^6 P. berghei parasites in red blood cells. Two hours later twice daily intra-peritoneal treatment began with L-167645 in 10% DMSO. In the experiments described within, five animals were dosed with 75 milligrams compound per kilogram body weight (mpk) and received two treatments for one day. Five additional mice were dosed at 50 mpk and received two treatments daily for five days. Five control mice were dosed with an equivalent volume of 10% DMSO twice daily for 5 days. Parasite burden was measured by counting infected red blood cells as a function of total red blood cells (% parasitemia) and was performed periodically; -parasitemia on day 8 post-infection are tabulated below.

Native E. maxima PKG = Native E. maxima PKG (Eimeria maxima, UniProt Q8MMZ5); experiment: PKG catalytic assay, native E. maxima PKG; format: biochemical
Method: E. maxima unsporulated oocysts were harvested from the ceca of chickens seven days after infection with sporulated oocysts and purified using standard methods (Schmatz et al, 1986, J. Protozoology 33, 109-114). Soluble extracts were prepared by vortexing 2×10^9 E. maxima unsporulated oocysts with an equal volume of buffer (10 mM HEPES pH 7.4, 1 mM sodium orthovanadate, 20% glycerol, 0.1 mg/ml Bacitracin and 0.5% Sigma protease inhibitor cocktail P8340), and an equal volume of […] glass beads for 20 minutes. The resulting homogenate was centrifuged (100,000×g, 1 hour) and the supernatant (S100) collected. Native E. maxima PKG activity in the S100 fraction was affinity purified using an 8-AET-cGMP-agarose matrix as described below. • (iv) Isolation and Characterization of Native PKG from P. falciparum
Kinase activity was detected using a peptide substrate and [γ-^33P]-ATP. An aliquot containing the respective enzyme preparations was combined with a reaction mixture (10 μl) whose composition is as follows: 25 mM HEPES pH 7.4, 10 mM MgCl2, 20 mM beta-glycerophosphate, 5 mM beta-mercaptoethanol, 10 μM cGMP, 1 mg/ml BSA, 400 μM Kemptide, 2 μM [γ-^33P]ATP (0.1 mCi/ml). […] In both cases filters were washed with 75 mM phosphoric acid, dried and ^33P-labelled phosphopeptide was detected by liquid scintillation counting.

[1] = system: Mixed-species field isolate of Eimeria DP-924 (E. maxima, E. acervulina, E. mitis); experiment: Chicken battery experiment, mixed-species Eimeria field isolate DP-924; format: in vivo; settings: chickens, field isolate DP-924, 125 ppm in feed
Excerpt: (§2) Chicken battery experiments have also been conducted to evaluate L-167645 efficacy against mixed-species field isolates of Eimeria. The Eimeria cultures were obtained from grower farms in major broiler-producing states. Two of these field isolates, DP-924 and DP-968, contained E. maxima parasites. Each treatment group consisted of one pen of three one-week old White Leghorn chickens. Animals were placed on medicated feed at doses of L-167645 ranging from 25 to 150 ppm for the duration of the study. After 48 hrs, birds were infected by oral gavage with a total of 1×10^5 sporulated oocysts.

Plasmodium falciparum = experiment: PFAIV assay: tritiated hypoxanthine incorporation into parasitized red blood cells; format: cell-based; settings: Erythrocyte, in vitro cell culture, 48 hours, [3H]-hypoxanthine incorporation, read-out: concentration of compound required to inhibit growth by 50% (IC50)
Method: The PFAIV assay is an in vitro assay designed to identify potential inhibitors of P. falciparum by measuring the incorporation of tritiated hypoxanthine into parasitized red blood cells.
The following method is an adaptation of the method described by Desjardins, R. E. et al, 1979. AAC Vol 16, p710-718:
1. Sixty microliters of a solution of RPMI 1640 media plus gentamycin (1:100 dilution) containing the desired concentration of test compound is added to the wells of a 96-well plate. (For titrations, 120 microliters is added to the top well and the compounds are serially diluted into 60 microliters of media.)
2. Fifty three microliters of parasitized red blood cells is added to the wells. The parasitemia of the culture is approximately 2-3% and the hematocrit is 5%. The red blood cells are diluted in RPMI 1640 media containing 20% human A+ serum and gentamycin.
3. Twelve microliters of RPMI1640 media containing 200 uCi [^3H] - hypoxanthine is added to each well.
4. The plates are incubated at 37° C. for 48 hours under […] (candle jar). After incubation, the plates are frozen overnight (for safety), then thawed and harvested using a manual 96-well harvester onto UNIFILTER GF/B plates.
5. The plates are counted on a Wallac instrument and % inhibition of parasite growth is determined as compared to control wells containing no compound.

[2] = system: Mixed-species field isolate of Eimeria DP-968 (E. maxima, E. acervulina, E. mitis, E. tenella); experiment: Chicken battery experiment, mixed-species Eimeria field isolate DP-968; format: in vivo; settings: chickens, field isolate DP-968, 125 ppm in feed
Excerpt: as §2

C. parvum = experiment: In vitro tissue culture based assay with C. parvum; format: cell-based
E. maxima = experiment: Efficacy against E. maxima in infected chickens (oocyst counts); format: in vivo; settings: 125 ppm in the feed, terminated on day 8
Method: Several studies have been conducted to evaluate the efficacy of […] against E. maxima in infected chickens. For efficacy studies against E. maxima alone, L-167645 was administered in the feed at doses from 25 to 150 ppm starting on day one. Birds were infected with 3.5×10^3 E. maxima sporalated oocysts on day 2 and medicated feed was continuously available at the respective doses for the duration of the study. The experiment was terminated on day 8, intestines were removed and homogenized and compound efficacy was estimated by performing oocyst counts.

[3] = molecular target: Recombinant E. maxima PKG (Eimeria maxima, UniProt Q8MMZ5); experiment: PKG catalytic assay, recombinant E. maxima PKG; format: biochemical
Excerpt: T. gondii was selected as a host cell for recombinant expression of functional E. maxima PKG enzyme. An Eimeria maxima cDNA encoding the PKG open reading frame (ORF) was modified prior to subcloning for expression by appending either an N-terminal or C-terminal FLAG epitope for detection purposes via PCR amplification. DNA fragments encoding FLAG-epitope tagged PKGs were then placed in a T. gondii expression vector under the control of a Toxoplasma α-tubulin promoter (Soldati and Boothroyd, 1993, Science 260, 349-352). The vector encodes bacterial chloramphenicol acetyltransferase (CAT) as a selectable marker for transfection.
T. gondii tachyzoites of the RH strain were maintained by serial passage in primary human foreskin fibroblast cultures (HFF). Host cells were grown in Dulbecco's modified Eagle's medium with 10% heat-inactivated newborn bovine serum. […]
Recombinant FLAG-tagged E. maxima PKG was purified from T. gondii lysates by FLAG immuno-affinity chromatography. […] Protein was measured with a micro BCA reagent (Pierce), using a TCA/sodium deoxycholate step (Brown et al, 1989, Analytical Biochemistry 180, 136-139) to remove residual FLAG peptide prior to quantitation. […]
as §1

SMILES: CN1CCC(c2cc(-c3ccncc3)c(-c3ccc(F)cc3)[nH]2)CC1 [L-167645, 4-[2-(4-fluorophenyl)-5-(1-methylpiperidine4-yl)-1H-pyrrol-3-yl]pyridine]
- IC50 (Native P. falciparum PKG): 8.53 nM
- % parasitemia 8 days post-infection (P. berghei; 50 mpk intra-peritoneal, twice daily for five days, 50 mg/kg): 0% (2×) and 1% (2×) and 3%
- % parasitemia 8 days post-infection (P. berghei; 75 mpk intra-peritoneal, two treatments for one day, 75 mg/kg): 3% and 4% and 1% (2×) and Dead
- IC50 (Native E. maxima PKG): 4.6 nM
- % Reduction in Oocyst Counts [1]: 97%
- Relative % Weight Gain [1]: 108%
- IC50 (Plasmodium falciparum): 2.2 µg/mL (≈ 6.56 µM)
- % Reduction in Oocyst Counts [2]: 86%
- Relative % Weight Gain [2]: 94%
- inhibition of parasitic growth (C. parvum): effective in inhibiting parasitic growth
- reduction in oocyst counts (E. maxima): greater than 99%
- IC50 [3]: 4.2 nM
